Data: patent publication US9669047B2, “Method for producing polyphenol composition” (KAO CORPORATION, priority 2012, dated 2017)
In brackets after ≈: the same amount, converted by molar mass.

Key:
[1] = Solubility of the raw polyphenols (A) and (B) in water at 25° C.; details: for Solubility of (B) in water (25° C.): water-soluble polyphenol (B) alone; for Solubility of (A) in water (25° C.): hardly water-soluble polyphenol (A) alone
Excerpt: (§1) The term “hardly water-soluble polyphenol” used in the present invention refers to the one having a poor solubility in water. […] The solubility represents herein a gram number of the solute being dissolved in 1 L of the solution with a unit of [g/L].

physchem = details: 25 °C, water
Excerpt: as §1

Compound	Solubility of (B) in water (25° C.) [1]	Solubility of (A) in water (25° C.) [1] [µg/mL]	also measured
O=C(O[C@@H]1Cc2c(O)cc(O)cc2O[C@@H]1c1cc(O)c(O)c(O)c1)c1cc(O)c(O)c(O)c1 [Catechin, epigallocatechin gallate]	15 g/L		
O=c1oc2c(O)c(O)cc3c(=O)oc4c(O)c(O)cc1c4c23 [Ellagic acid, ellagic acid]		4	solubility ([1]; 25 °C): 4 µg/mL (≈ 13.2 µM)
COc1ccc([C@@H]2CC(=O)c3c(O)cc(O[C@@H]4O[C@H](CO[C@@H]5O[C@@H](C)[C@H](O)[C@@H](O)[C@H]5O)[C@@H](O)[C@H](O)[C@H]4O)cc3O2)cc1O [Hesperidin, hesperidin]		50	
c1cc2c(cc1[C@H]1OC[C@H]3[C@@H]1CO[C@@H]3c1ccc3c(c1)OCO3)OCO2 [Sesamin, sesamin]			solubility (physchem): 0.14 µg/mL (≈ 0.395 µM)
glucosylhesperidin	≥ 300 or g/L		
